Molecular target: T1, ERR1 (also known as ERR-α or ERR-1) (Homo sapiens, UniProt P11474)
T1 sequence (P11474 193-421 limits assumed): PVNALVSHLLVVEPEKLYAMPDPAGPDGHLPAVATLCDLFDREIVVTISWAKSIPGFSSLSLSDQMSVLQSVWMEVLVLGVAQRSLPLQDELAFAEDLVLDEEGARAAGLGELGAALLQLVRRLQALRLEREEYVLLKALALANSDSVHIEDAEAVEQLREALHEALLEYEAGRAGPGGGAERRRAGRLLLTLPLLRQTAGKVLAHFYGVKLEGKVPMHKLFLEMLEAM
Assay: TR-FRET assay (disruption of co-activator peptide binding to ERR1 LBD)
Type: biochemical
Details: 6 nM 6His-ERR1LBD, 6 nM GST-SRC-2 peptide; average of 3 independent experiments
Method in brief: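 Homogeneous TR-FRET measuring displacement of GST-hSRC2 co-activator peptide (6 nM) from His-tagged ERR1 LBD (6 nM), detected with α-GST Eu cryptate (30 nM) and α-His-XL665 (7.5 nM). Buffer 25 mM Tris pH 8, 2.5 mM Hepes, 20 mM KCl, 1 mM DTT, 0.05 mg/mL delipidated BSA; equilibration 4-18 h at 25° C. Hyperbolic dose-response fit, mean of 3 experiments.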

SMILES	EC50
O=C1S/C(=C\c2ccc3c(cnn3Cc3ccc(Cl)cc3C(F)(F)F)c2)C(=O)N1OCCN1CCCC1 [Compound 289, (5Z)-5-({1-[4-Chloro-2-(trifluoromethyl)benzyl]-1H-indazol-5-yl}methylidene)-3-(2-pyrrolidin-1-ylethoxy)-1,3-thiazolidine-2,4-dione]	17 nM
O=C1S/C(=C\c2ccc3c(c2)nnn3Cc2ccc(Cl)cc2C(F)(F)F)C(=O)N1O [Compound 290, (5Z)-5-({1-[4-Chloro-2-(trifluoromethyl)benzyl]-1H-benzotriazol-5-yl}methylidene)-3-hydroxy-1,3-thiazolidine-2,4-dione]	29 nM
O=C1S/C(=C\c2ccc3c(cnn3Cc3ccc(C(F)(F)F)cc3C(F)(F)F)c2)C(=O)N1O [Compound 291, (5Z)-5-({1-[2,4-Bis(trifluoromethyl)benzyl]-1H-indazol-5-yl}methylidene)-3-hydroxy-1,3-thiazolidine-2,4-dione]	47 nM
O=C1S/C(=C\c2ccc3c(cnn3Cc3ccc(Cl)cc3C(F)(F)F)c2)C(=O)N1C[C@@H](O)CN1CCCC1 [Compound 292, (5Z)-5-({1-[4-Chloro-2-(trifluoromethyl)benzyl]-1H-indazol-5-yl}methylidene)-3-[(2S)-2-hydroxy-3-pyrrolidin-1-ylpropyl]-1,3-thiazolidine-2,4-dione]	49 nM
CN(C)C[C@H](O)CN1C(=O)S/C(=C\c2ccc3c(cnn3Cc3ccc(Cl)cc3C(F)(F)F)c2)C1=O [Compound 293, (5Z)-5-({1-[4-Chloro-2-(trifluoromethyl)benzyl]-1H-indazol-5-yl}methylidene)-3-[(2S)-3-(dimethylamino)-2-hydroxypropyl]-1,3-thiazolidine-2,4-dione]	35 nM
O=C1S/C(=C\c2ccc3c(cnn3Cc3ccc(Cl)cc3C(F)(F)F)c2)C(=O)N1C[C@H](O)CN1CC[C@@H](F)C1 [Compound 294, (5Z)-5-({1-[4-Chloro-2-(trifluoromethyl)benzyl]-1H-indazol-5-yl}methylidene)-3-{(2R)-3-[(3R)-3-fluoropyrrolidin-1-yl]-2-hydroxypropyl}-1,3-thiazolidine-2,4-dione]	63 nM
O=C1S/C(=C\c2ccc3c(cnn3Cc3ccc(Cl)cc3C(F)(F)F)c2)C(=O)N1C[C@H](O)CNCCF [Compound 295, (5Z)-5-({1-[4-Chloro-2-(trifluoromethyl)benzyl]-1H-indazol-5-yl}methylidene)-3-{(2R)-3-[(2-fluoroethyl)amino]-2-hydroxypropyl}-1,3-thiazolidine-2,4-dione]	66 nM
O=C1S/C(=C\c2ccc3c(cnn3Cc3ccc(Cl)cc3C(F)(F)F)c2)C(=O)N1CCn1ccnc1 [Compound 296, (5Z)-5-({1-[4-Chloro-2-(trifluoromethyl)benzyl]-1H-indazol-5-yl}methylidene)-3-[2-(1H-imidazol-1-yl)ethyl]-1,3-thiazolidine-2,4-dione]	17 nM
NC(=O)CN1CCC[C@H]1CN1C(=O)S/C(=C\c2ccc3c(cnn3Cc3ccc(Cl)cc3C(F)(F)F)c2)C1=O [Compound 297, 2-[(2S)-2-{[(5Z)-5-({1-[4-Chloro-2-(trifluoromethyl)benzyl]-1H-indazol-5-yl}methylidene)-2,4-dioxo-1,3-thiazolidin-3-yl]methyl}pyrrolidin-1-yl]acetamide]	76 nM
NC(=O)CN1CCC[C@@H]1CN1C(=O)S/C(=C\c2ccc3c(cnn3Cc3ccc(Cl)cc3C(F)(F)F)c2)C1=O [Compound 298, 2-[(2R)-2-{[(5Z)-5-({1-[4-Chloro-2-(trifluoromethyl)benzyl]-1H-indazol-5-yl}methylidene)-2,4-dioxo-1,3-thiazolidin-3-yl]methyl}pyrrolidin-1-yl]acetamide]	49 nM
NC(=O)CN1CC[C@@H](CN2C(=O)S/C(=C\c3ccc4c(cnn4Cc4ccc(Cl)cc4C(F)(F)F)c3)C2=O)C1 [Compound 299, 2-[(3R)-3-{[(5Z)-5-({1-[4-Chloro-2-(trifluoromethyl)benzyl]-1H-indazol-5-yl}methylidene)-2,4-dioxo-1,3-thiazolidin-3-yl]methyl}pyrrolidin-1-yl]acetamide]	37 nM
O=C1S/C(=C\c2ccc3c(c2)c(Cl)nn3Cc2ccc(Cl)cc2C(F)(F)F)C(=O)N1CCN1CCCC1 [Compound 300, (5Z)-5-({3-Chloro-1-[4-chloro-2-(trifluoromethyl)benzyl]-1H-indazol-5-yl}methylidene)-3-(2-pyrrolidin-1-ylethyl)-1,3-thiazolidine-2,4-dione]	7 nM
CN1CCC[C@H]1CN1C(=O)S/C(=C\c2ccc3c(c2)c(Cl)nn3Cc2ccc(Cl)cc2C(F)(F)F)C1=O [Compound 301, (5Z)-5-({3-Chloro-1-[4-chloro-2-(trifluoromethyl)benzyl]-1H-indazol-5-yl}methylidene)-3-{[(2S)-1-methylpyrrolidin-2-yl]methyl}-1,3-thiazolidine-2,4-dione]	15 nM
O=C(O)C1CCC(N2C(=O)S/C(=C\c3ccc4c(c3)c(Cl)nn4Cc3ccc(Cl)cc3C(F)(F)F)C2=O)CC1 (stereo not shown) [Compound 302, 4-[(5Z)-5-({3-Chloro-1-[4-chloro-2-(trifluoromethyl)benzyl]-1H-indazol-5-yl}methylidene)-2,4-dioxo-1,3-thiazolidin-3-yl] cyclohexanecarboxylic acid]	2 nM
O=C1S/C(=C\c2ccc3c(cnn3Cc3ccc(Cl)cc3C(F)(F)F)c2)C(=O)N1CC1(F)CCNCC1 [Compound 303, (5Z)-5-({1-[4-Chloro-2-(trifluoromethyl)benzyl]-1H-indazol-5-yl}methylidene)-3-[(4-fluoropiperidin-4-yl)methyl]-1,3-thiazolidine-2,4-dione]	26 nM
CN1CCC(F)(CN2C(=O)S/C(=C\c3ccc4c(cnn4Cc4ccc(Cl)cc4C(F)(F)F)c3)C2=O)CC1 [Compound 304, (5Z)-5-({1-[4-Chloro-2-(trifluoromethyl)benzyl]-1H-indazol-5-yl}methylidene)-3-[(4-fluoro-1-methylpiperidin-4-yl)methyl]-1,3-thiazolidine-2,4-dione]	7 nM
O=C1S/C(=C\c2ccc3c(cnn3Cc3ccc(Cl)cc3C(F)(F)F)c2)C(=O)N1CC1(F)CCN(CCO)CC1 [Compound 305, (5Z)-5-({1-[4-Chloro-2-(trifluoromethyl)benzyl]-1H-indazol-5-yl}methylidene)-3-{[4-fluoro-1-(2-hydroxyethyl)piperidin-4-yl]methyl}-1,3-thiazolidine-2,4-dione]	3 nM
CCN1CCC(F)(CN2C(=O)S/C(=C\c3ccc4c(cnn4Cc4ccc(Cl)cc4C(F)(F)F)c3)C2=O)CC1 [Compound 306, (5Z)-5-({1-[4-Chloro-2-(trifluoromethyl)benzyl]-1H-indazol-5-yl}methylidene)-3-[(1-ethyl-4-fluoropiperidin-4-yl)methyl]-1,3-thiazolidine-2,4-dione]	71 nM
[2H]C([2H])([2H])N1CCC(F)(CN2C(=O)S/C(=C\c3ccc4c(cnn4Cc4ccc(Cl)cc4C(F)(F)F)c3)C2=O)CC1 [Compound 307, (5Z)-5-({1-[4-Chloro-2-(trifluoromethyl)benzyl]-1H-indazol-5-yl}methylidene)-3-{[4-fluoro-1-(^2H3)methylpiperidin-4-yl]methyl}-1,3-thiazolidine-2,4-dione]	210 nM
NC1(CN2C(=O)S/C(=C\c3ccc4c(cnn4Cc4ccc(Cl)cc4C(F)(F)F)c3)C2=O)CCOCC1 [Compound 308, (5Z)-3-[(4-Aminotetrahydro-2H-pyran-4-yl)methyl]-5-({1-[4-chloro-2-(trifluoromethyl)benzyl]-1H-indazol-5-yl}methylidene)-1,3-thiazolidine-2,4-dione]	5 nM
COC(=O)NC1(CN2C(=O)S/C(=C\c3ccc4c(cnn4Cc4ccc(Cl)cc4C(F)(F)F)c3)C2=O)CCOCC1 [Compound 309, Methyl (4-{[(5Z)-5-({1-[4-chloro-2-(trifluoromethyl)benzyl]-1H-indazol-5-yl}methylidene)-2,4-dioxo-1,3-thiazolidin-3-yl]methyl}tetrahydro-2H-pyran-4-yl)carbamate]	15 nM
NC1(CN2C(=O)S/C(=C\c3ccc4c(cnn4Cc4ccc(C(F)(F)F)cc4C(F)(F)F)c3)C2=O)CCOCC1 [Compound 310, (5Z)-3-[(4-Aminotetrahydro-2H-pyran-4-yl)methyl]-5-({1-[2,4-bis(trifluoromethyl)benzyl]-1H-indazol-5-yl}methylidene)-1,3-thiazolidine-2,4-dione]	86 nM
O=C(NC1(CN2C(=O)S/C(=C\c3ccc4c(cnn4Cc4ccc(C(F)(F)F)cc4C(F)(F)F)c3)C2=O)CCOCC1)C1CC1 [Compound 311, N-(4-{[(5Z)-5-({1-[2,4-Bis(trifluoromethyl)benzyl]-1H-indazol-5-yl}methylidene)-2,4-dioxo-1,3-thiazolidin-3-yl]methyl}tetrahydro-2H-pyran-4-yl) cyclopropanecarboxamide]	133 nM
NC1(CCN2C(=O)S/C(=C\c3ccc4c(cnn4Cc4ccc(Cl)cc4C(F)(F)F)c3)C2=O)CCOCC1 [Compound 312, (5Z)-3-[2-(4-Aminotetrahydro-2H-pyran-4-yl)ethyl]-5-({1-[4-chloro-2-(trifluoromethyl)benzyl]-1H-indazol-5-yl}methylidene)-1,3-thiazolidine-2,4-dione]	65 nM
NC1(CCN2C(=O)S/C(=C\c3ccc4c(cnn4Cc4ccc(C(F)(F)F)cc4C(F)(F)F)c3)C2=O)CCOCC1 [Compound 313, (5Z)-3-[2-(4-Aminotetrahydro-2H-pyran-4-yl)ethyl]-5-({1-[2,4-bis(trifluoromethyl)benzyl]-1H-indazol-5-yl}methylidene)-1,3-thiazolidine-2,4-dione]	700 nM

From US8796256B2 (Janssen Pharmaceutica NV, priority 2010, dated 2014)
